Results as given in US11332479B2, “Imidazooxazole derivative having antitumor effect, and pharmaceutical composition including same” (KOREA INSTITUTE OF SCIENCE AND TECHNOLOGY, priority 2016, dated 2022).
Values belong to the compound of their own block, whether it stands above or below them.

Experiments:
V600E-B-RAF = V600E-B-RAF (Homo sapiens (Human), UniProt P15056, V600E); test: Protein kinase enzymatic activity (Reaction Biology kinase hotspot), V600E-B-RAF; assay type: biochemical; conditions: for IC50: read-out: Inhibitory effect against kinase activity of V600E-B-RAF (IC50); for Inhibitory effect against enzymatic activity of V600E-RAF, in words: compared with GW5074 and vemurafenib
V600E-B-RAF, sequence (P15056 whole entry V600E): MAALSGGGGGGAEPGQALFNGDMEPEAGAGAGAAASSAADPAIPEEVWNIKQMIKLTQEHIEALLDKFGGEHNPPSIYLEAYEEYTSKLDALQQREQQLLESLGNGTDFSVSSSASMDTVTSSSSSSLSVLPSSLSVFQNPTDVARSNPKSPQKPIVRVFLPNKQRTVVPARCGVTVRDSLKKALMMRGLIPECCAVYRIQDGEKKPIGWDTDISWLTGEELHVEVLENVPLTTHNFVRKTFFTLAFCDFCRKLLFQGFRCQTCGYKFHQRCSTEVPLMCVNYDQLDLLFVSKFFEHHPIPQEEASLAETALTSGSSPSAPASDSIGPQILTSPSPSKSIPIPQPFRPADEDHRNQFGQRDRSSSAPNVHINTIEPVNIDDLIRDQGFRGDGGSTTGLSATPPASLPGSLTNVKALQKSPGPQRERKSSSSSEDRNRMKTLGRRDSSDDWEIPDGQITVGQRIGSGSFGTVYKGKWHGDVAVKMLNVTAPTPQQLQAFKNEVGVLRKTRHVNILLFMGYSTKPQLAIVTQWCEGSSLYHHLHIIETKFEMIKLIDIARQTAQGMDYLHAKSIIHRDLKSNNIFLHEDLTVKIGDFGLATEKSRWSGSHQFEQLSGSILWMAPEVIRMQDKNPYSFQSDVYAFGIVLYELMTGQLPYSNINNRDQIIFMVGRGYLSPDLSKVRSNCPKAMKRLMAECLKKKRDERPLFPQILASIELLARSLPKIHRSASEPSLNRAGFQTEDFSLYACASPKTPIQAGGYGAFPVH
Protocol: (§1) Reaction biology kinase hotspot service (http://www.reactionbiology.com) was used to measure IC50. In a final reaction volume of 25 μL, kinase (5 mU to 10 mU) was incubated with 25 mM Tris (pH 7.5), 0.02 mM EGTA, 0.66 mg/ml of myelin basic protein, 10 mM magnesium acetate, and [^33P-ATP] (specific activity of about 500 CPM/pmol, concentration as required). The reaction was initiated by addition of Mg-ATP mix. After incubation for 40 min at room temperature, the reaction was stopped by addition of 5 μl of a 3% phosphoric acid solution. 10 μL of the reaction was then spotted onto a P30 filtermat and washed three times for 5 minutes in 75 mM phosphoric acid and once in methanol prior to drying and scintillation counting.

B-RAF = B-RAF (Homo sapiens (Human), UniProt P15056); test: Protein kinase enzymatic activity (Reaction Biology kinase hotspot), B-RAF; assay type: biochemical; conditions: for Inhibitory effect against enzymatic activity of B-RAF, in words: compared with GW5074 and vemurafenib; for IC50: read-out: Inhibitory effect against kinase activity of B-RAF (IC50)
B-RAF, sequence (P15056 whole entry): as the sequence (P15056 whole entry V600E) above, with E600V counted along it
Protocol: as §1

C-RAF = C-RAF (Homo sapiens (Human), UniProt P04049); test: Protein kinase enzymatic activity (Reaction Biology kinase hotspot), C-RAF; assay type: biochemical; conditions: for Inhibitory effect against enzymatic activity of C-RAF, in words: compared with GW5074 and vemurafenib; for IC50: read-out: Inhibitory effect against kinase activity of C-RAF (IC50)
C-RAF, sequence (P04049 whole entry): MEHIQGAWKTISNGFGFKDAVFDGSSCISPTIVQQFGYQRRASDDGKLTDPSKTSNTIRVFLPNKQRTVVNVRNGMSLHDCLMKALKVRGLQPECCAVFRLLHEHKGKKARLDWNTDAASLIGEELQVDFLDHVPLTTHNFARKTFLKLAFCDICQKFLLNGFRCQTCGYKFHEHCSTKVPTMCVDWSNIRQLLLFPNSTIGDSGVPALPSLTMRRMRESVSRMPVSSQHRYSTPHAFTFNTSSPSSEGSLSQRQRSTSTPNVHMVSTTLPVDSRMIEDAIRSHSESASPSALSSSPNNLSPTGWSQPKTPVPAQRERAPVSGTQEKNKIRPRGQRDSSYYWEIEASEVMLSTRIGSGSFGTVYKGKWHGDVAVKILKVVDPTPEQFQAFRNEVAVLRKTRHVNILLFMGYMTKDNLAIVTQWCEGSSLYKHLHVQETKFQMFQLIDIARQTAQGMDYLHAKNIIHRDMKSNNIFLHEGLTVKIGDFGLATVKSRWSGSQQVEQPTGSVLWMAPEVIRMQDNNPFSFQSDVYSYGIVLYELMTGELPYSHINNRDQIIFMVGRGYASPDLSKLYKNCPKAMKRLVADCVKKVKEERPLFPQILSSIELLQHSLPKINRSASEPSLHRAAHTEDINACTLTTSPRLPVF
Protocol: as §1

[1] = test system: A375P cell line xenograft; test: Tumor-inhibitory effects in melanoma xenograft mouse model; assay type: in vivo, nude mice
Protocol: In this experiment, A375P cell line which is a human-derived malignant melanoma cell line was subcutaneously administered to nude mice to prepare xenograft models, and the test material (compound 2II) was administered to the xenograft models to evaluate anti-cancer effects (G1: an excipient control group, G2: a group administered with 20 mg/kg/day of the test material, and G3: a group administered with 50 mg/kg/day of the test material).

IC50 (V600E-B-RAF): 0.05 nM
SMILES: COc1ccc(S(=O)(=O)NCCCNc2nccc(-c3c(-c4ccc(F)c(O)c4)nc4sccn34)n2)cc1 [Compound 50III, N-(3-(4-(6-(4-fluoro-3-hydroxyphenyl)imidazo[2,1-b]thiazol-5-yl)pyrimidin-2-ylamino)propyl)-4-methoxybenzenesulfonamide]

IC50 (V600E-B-RAF): 1.89 nM
SMILES: COc1cc(-c2nc3sccn3c2-c2ccnc(NCCCNS(=O)(=O)c3ccc(Cl)cc3)n2)ccc1F [Compound 38III, 4-chloro-N-(3-(4-(6-(4-fluoro-3-methoxyphenyl)imidazo[2,1-b]thiazol-5-yl)pyrimidin-2-ylamino)propyl)benzenesulfonamide]

IC50 (V600E-B-RAF): 0.15 nM
SMILES: O=S(=O)(NCCNc1nccc(-c2c(-c3ccc(F)c(O)c3)nc3sccn23)n1)c1ccccc1 [Compound 46III, N-(2-(4-(6-(4-fluoro-3-hydroxyphenyl)imidazo[2,1-b]thiazol-5-yl)pyrimidin-2-ylamino)ethyl)benzenesulfonamide]

IC50 (V600E-B-RAF): 0.36 nM
SMILES: O=S(=O)(NCCCNc1nccc(-c2c(-c3ccc(F)c(O)c3)nc3sccn23)n1)c1ccc(F)cc1 [Compound 42III, 4-Fluoro-N-(3-((4-(6-(4-fluoro-3-hydroxyphenyl)imidazo[2,1-b]thiazol-5-yl)pyrimidin-2-yl)amino)propyl)benzenesulfonamide]

IC50 (V600E-B-RAF): 0.27 nM
SMILES: O=S(=O)(NCCCNc1nccc(-c2c(-c3ccc(F)c(O)c3)nc3sccn23)n1)c1ccc(Cl)cc1 [Compound 48III, 4-chloro-N-(3-(4-(6-(4-fluoro-3-hydroxyphenyl)imidazo[2,1-b]thiazol-5-yl)pyrimidin-2-ylamino)propyl)benzenesulfonamide]

IC50 (V600E-B-RAF): 6.96 nM
SMILES: O=S(=O)(NCCNc1nccc(-c2c(-c3ccc(F)c(O)c3)nc3sccn23)n1)c1ccc(Cl)cc1 [Compound 43III, 4-chloro-N-(2-(4-(6-(4-fluoro-3-hydroxyphenyl)imidazo[2,1-b]thiazol-5-yl)pyrimidin-2-ylamino)ethyl)benzenesulfonamide]

Continued, compound first:

SMILES: O=S(=O)(NCCNc1nccc(-c2c(-c3cccc(O)c3)nc3sccn23)n1)c1ccc(F)cc1 [Compound 25III, 4-Fluoro-N-(2-((4-(6-(3-hydroxylphenyl)imidazo[2,1-b]thiazol-5-yl)pyrimidin-2-yl)amino)ethyl)benzenesulfonamide]
Inhibitory effect against enzymatic activity of V600E-RAF, in words (V600E-B-RAF): excellent inhibitory effects
Inhibitory effect against enzymatic activity of B-RAF, in words (B-RAF): excellent inhibitory effects
Inhibitory effect against enzymatic activity of C-RAF, in words (C-RAF): excellent inhibitory effects

SMILES: COc1ccc(S(=O)(=O)NCCCNc2nccc(-c3c(-c4ccc(F)c(O)c4)nc4occn34)n2)cc1 [72 IV, N-(3-(4-(6-(4-fluoro-3-hydroxyphenyl)imidazo[2,1-b]oxazol-5-yl)pyrimidin-2-ylamino)propyl)-4-methoxybenzenesulfonamide]
IC50 (V600E-B-RAF): 0.08 nM

SMILES: O=S(=O)(NCCNc1nccc(-c2c(-c3ccc(F)c(O)c3)nc3occn23)n1)c1ccc(Cl)cc1 [65 IV, 4-chloro-N-(2-(4-(6-(4-fluoro-3-hydroxyphenyl)imidazo[2,1-b]oxazol-5-yl)pyrimidin-2-ylamino)ethyl)benzenesulfonamide]
IC50 (V600E-B-RAF): 0.37 nM

SMILES: O=S(=O)(NCCNc1nccc(-c2c(-c3ccc(F)c(O)c3)nc3occn23)n1)c1ccc(F)cc1 [64 IV, 4-fluoro-N-(2-(4-(6-(4-fluoro-3-hydroxyphenyl)imidazo[2,1-b]oxazol-5-yl)pyrimidin-2-ylamino)ethyl)benzenesulfonamide]
IC50 (V600E-B-RAF): 0.36 nM

SMILES: COc1cc(-c2nc3sccn3c2-c2ccnc(NCCCNS(=O)(=O)c3ccc(F)cc3)n2)ccc1F [Compound 37III, 4-Fluoro-N-(3-((4-(6-(4-fluoro-3-methoxyphenyl)imidazo[2,1-b]thiazol-5-yl)pyrimidin-2-yl)amino)propyl)benzenesulfonamide]
IC50 (V600E-B-RAF): 1.66 nM
IC50 (B-RAF): 8.8 nM
IC50 (C-RAF): 13.8 nM

SMILES: CCN1CCN(CCNc2nccc(-c3c(-c4ccc(F)c(O)c4)nc4sccn34)n2)S1(=O)=O [Compound 31II]
IC50 (V600E-B-RAF): 0.98 nM
IC50 (B-RAF): 4.19 nM
IC50 (C-RAF): 7.83 nM

SMILES: O=S(=O)(NCCCNc1nccc(-c2c(-c3cccc(O)c3)nc3sccn23)n1)c1ccc(F)cc1 [Compound 31III, 4-Fluoro-N-(3-((4-(6-(3-hydroxylphenyl)imidazo[2,1-b]thiazol-5-yl)pyrimidin-2-yl)amino)propyl)benzenesulfonamide]
Inhibitory effect against enzymatic activity of V600E-RAF, in words (V600E-B-RAF): excellent inhibitory effects
Inhibitory effect against enzymatic activity of B-RAF, in words (B-RAF): excellent inhibitory effects
Inhibitory effect against enzymatic activity of C-RAF, in words (C-RAF): excellent inhibitory effects

SMILES: CN1CCN(CCNc2nccc(-c3c(-c4cccc(O)c4)nc4occn34)n2)S1(=O)=O [Compound 1II, 2-(2-((4-(6-(3-Hydroxylphenyl)imidazo[2,1-b]oxazol-5-yl)pyrimidin-2-yl)amino)ethyl)-5-methyl-1,2,5-thiadiazolidine 1,1-dioxide]
Inhibitory effect against enzymatic activity of V600E-RAF, in words (V600E-B-RAF): excellent inhibitory effects
Inhibitory effect against enzymatic activity of B-RAF, in words (B-RAF): excellent inhibitory effects
Inhibitory effect against enzymatic activity of C-RAF, in words (C-RAF): excellent inhibitory effects
IC50 (C-RAF): 2.95 nM

SMILES: CCN1CCN(CCNc2nccc(-c3c(-c4cccc(O)c4)nc4occn34)n2)S1(=O)=O [Compound 2II, 2-Ethyl-5-(2-((4-(6-(3-hydroxylphenyl)imidazo[2,1-b]oxazol-5-yl)pyrimidin-2-yl)amino)ethyl)-1,2,5-thiadiazolidine 1,1-dioxide]
Inhibitory effect against enzymatic activity of V600E-RAF, in words (V600E-B-RAF): excellent inhibitory effects
Inhibitory effect against enzymatic activity of B-RAF, in words (B-RAF): excellent inhibitory effects
General symptoms and deaths ([1]; 20 and 50 mg/kg/day, twice per week for 3 weeks): no deaths or no abnormalities in general symptoms were observed
Tumor size, difference between all experimental groups ([1]; G1, G2, G3): no significant difference
Body weight compared with control group (G1) ([1]; G3, 50 mg/kg/day, 14 days and 21 days after administration): significantly low
Increase of the tumor size ([1]; groups administered with 20 and 50 mg/kg/day): inhibited in a dose-dependent manner
Inhibitory effect against enzymatic activity of C-RAF, in words (C-RAF): excellent inhibitory effects
IC50 (C-RAF): 0.75 nM

SMILES: COc1cc(-c2nc3occn3c2-c2ccnc(NCCCNS(=O)(=O)c3ccc(Cl)cc3)n2)ccc1F [60 IV, 4-chloro-N-(3-(4-(6-(4-fluoro-3-methoxyphenyl)imidazo[2,1-b]oxazol-5-yl)pyrimidin-2-ylamino)propyl)benzenesulfonamide]
IC50 (V600E-B-RAF): 11.3 nM

SMILES: Nc1cc(-c2nc3sccn3c2-c2ccnc(NCCCNS(=O)(=O)c3ccc(F)cc3)n2)ccc1F [Compound 52III, N-(3-((4-(6-(3-amino-4-fluorophenyl)imidazo[2,1-b]thiazol-5-yl)pyrimidin-2-yl)amino)propyl)-4-fluorobenzenesulfonamide]
IC50 (V600E-B-RAF): 1.03 nM
IC50 (B-RAF): 2.68 nM
IC50 (C-RAF): 5.41 nM

SMILES: O=S(=O)(NCCCNc1nccc(-c2c(-c3ccc(F)c(O)c3)nc3occn23)n1)c1ccccc1 [73 IV, N-(3-(4-(6-(4-fluoro-3-hydroxyphenyl)imidazo[2,1-b]oxazol-5-yl)pyrimidin-2-ylamino)propyl)benzenesulfonamide]
IC50 (V600E-B-RAF): 0.16 nM

SMILES: O=S(=O)(NCCCNc1nccc(-c2c(-c3ccc(F)c(O)c3)nc3occn23)n1)c1ccc(Cl)cc1 [70 IV, 4-chloro-N-(3-(4-(6-(4-fluoro-3-hydroxyphenyl)imidazo[2,1-b]oxazol-5-yl)pyrimidin-2-ylamino)propyl)benzenesulfonamide]
IC50 (V600E-B-RAF): 0.15 nM
